#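 Protocol summary: plate cells (96-well), add compound at 5 concentrations, incubate 48 h, interpolate endpoints linearly. GI50 is the concentration that inhibits growth by half. TGI marks complete inhibition of growth.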
# Tests used:
# Assay in all cases: NCI-60 cell line screen, 48 h
# OVCAR-3 ovarian = system: OVCAR-3 ovarian
# RPMI-8226 leukemia = system: RPMI-8226 leukemia
# MDA-MB-231 breast = system: MDA-MB-231 breast
# UACC-62 melanoma = system: UACC-62 melanoma
# NCI-H522 lung = system: NCI-H522 lung
# SNB-19 CNS = system: SNB-19 CNS
# SR leukemia = system: SR leukemia
# MDA-MB-435 = system: MDA-MB-435
# COLO 205 colon = system: COLO 205 colon
# SF-539 CNS = system: SF-539 CNS
SMILES,GI50 (OVCAR-3 ovarian) [µM],TGI (OVCAR-3 ovarian) [µM],GI50 (RPMI-8226 leukemia) [µM],TGI (RPMI-8226 leukemia) [µM],GI50 (MDA-MB-231 breast) [µM],TGI (MDA-MB-231 breast) [µM],GI50 (UACC-62 melanoma) [µM],TGI (UACC-62 melanoma) [µM],GI50 (NCI-H522 lung) [µM],TGI (NCI-H522 lung) [µM],GI50 (SNB-19 CNS) [µM],TGI (SNB-19 CNS) [µM],GI50 (SR leukemia) [µM],TGI (SR leukemia) [µM],GI50 (MDA-MB-435) [µM],TGI (MDA-MB-435) [µM],GI50 (COLO 205 colon) [µM],TGI (COLO 205 colon) [µM],GI50 (SF-539 CNS) [µM],TGI (SF-539 CNS) [µM]
O=C(NCCCc1cn[nH]c1)c1ccc(-c2ccncc2)c(C#Cc2ccc(F)cc2)c1,6.27,> 100,< 0.0113,9.54,16.4,> 100,16.5,> 70.1,< 0.0406,53.2,0.229,> 100,2.53,> 100,< 0.01,> 87.8,< 0.01,46.1,< 0.01,14.5
COC(=O)Nc1nc2ccccc2[nH]1,–,28.6,–,> 100,–,> 100,–,> 100,–,–,–,> 100,–,> 100,–,8.05,–,> 100,–,50.5
O=C(NNc1ccc(Cl)cc1)C1CCC(CNS(=O)(=O)c2ccccc2Cl)CC1 (stereo not drawn),8.68,39.8,4.91,21.9,4.63,29,2.81,9.64,12.8,75.1,–,–,10.2,66.4,4.77,24.1,–,–,17.4,45.1
N#CC1=C(N)Oc2c(ccc3ccccc23)C1c1cc(=O)oc2ccc(Cl)cc12 (stereo not drawn),0.386,12.3,1.68,20,4.36,> 100,0.47,41.1,0.348,2.97,0.651,> 100,0.449,> 100,0.244,0.947,1.95,8.27,0.486,5.57
COc1ccc(C(=O)c2cc(C)c(OC)c(C)c2)c(OC)c1NC(C)=O,0.483,–,0.785,> 100,0.363,> 100,0.333,> 100,0.157,–,0.265,> 100,0.307,> 100,–,–,0.299,1.28,0.214,0.848
CS(=O)(=O)c1ccc(Nc2nc(N[C@H]3CCCC[C@H]3N)nc3cc[nH]c(=O)c23)cc1,1.3,4.67,4,32.8,2.81,16.3,1.5,3.5,0.268,1.72,0.714,28.3,0.68,6.03,1.3,3.7,0.865,2.35,2.24,7.09
CN=C1C=CC(=C(c2ccc(N(C)C)cc2)c2ccc(N(C)C)cc2)C=C1,0.295,0.936,0.0543,0.255,0.267,0.785,0.297,1.39,0.253,0.801,0.324,1.94,0.206,0.551,0.251,0.66,0.184,0.524,0.319,1.84
CCN(CC)CCCC(C)Nc1cc(-c2cccc(OC(F)(F)F)c2)nc2ccc(N3CCCC3)cc12 (stereo not drawn),0.0305,0.382,0.0788,13.1,0.195,14.9,0.0484,20.9,0.0249,0.5,0.118,> 100,0.0365,> 100,0.0223,0.0519,0.213,1.51,0.0382,0.508
[N-]=[N+]=NCCCn1c2c(c3ccc([N+](=O)[O-])cc3c1=O)C(=O)c1cc(Br)ccc1-2,> 100,> 100,> 100,> 100,> 100,> 100,> 100,> 100,> 100,> 100,> 100,> 100,–,–,> 100,> 100,> 100,> 100,> 100,> 100
S=C1Cc2c(-c3ccc(Br)cc3)cc(-c3ccccc3)nc2-c2ccccc2N1,–,6.93,–,65.8,–,3.72,–,5.45,–,8.04,–,3.52,–,–,–,20.6,–,21.4,–,12.2
CN(C)CC1CC/C(=C\c2ccc3c(c2)OCO3)C1=O (stereo not drawn),–,15.3,–,–,–,4.25,–,30.4,–,8.51,–,36,–,11,–,4.43,–,18,–,31
CNCCCNc1nc2ccccc2c2c(=O)c3cc(OC)ccc3sc12,1.82,3.43,2.22,5.16,1.52,2.98,1.76,3.27,1.84,3.88,1.68,3.18,3.55,> 100,1.8,3.24,2.06,4.4,1.7,3.1
Cc1c(C#N)cccc1[C@@H](C)Nc1nnc(C)c2cnc(N3CCOCC3)cc12,14.5,66.1,25.8,> 100,26.9,> 100,30.5,> 100,17.5,> 100,25.3,> 100,10.7,92.1,18.3,49.1,22.4,60.8,43.1,> 100
CC(=O)OC12C=C(C)C(C(C)C1)C1C(=O)N(CCN3CCCCC3)C(=O)C12 (stereo not drawn),–,–,–,–,> 50,> 50,> 50,> 50,> 50,> 50,> 50,> 50,> 50,> 50,> 50,> 50,> 50,> 50,> 50,> 50
